The values below are quoted from earlier work in patent US5385885A, “Inhibition of smooth muscle cell proliferation by antistasin and tick anticoagulant peptide” (priority 1991, dated 1995).

Data set [1] concerns smooth muscle cell proliferative response to balloon catheter injury. Conditions: rat model; Powell et al.; cited from earlier work.
In data set [2] the test system is smooth muscle proliferative responses. To be noted: doses sufficiently high to prevent platelet adherence and release; Harker et al.; cited from earlier work.
Data set [3] deals with smooth muscle cells of rat carotid arteries. Conditions: site-delivered; after balloon catheterization; Edelman et al.; cited from earlier work.

On to `CCOC(=O)[C@H](CCc1ccccc1)N[C@H]1CCCN2CCC[C@@H](C(=O)O)N2C1=O` [cilazapril], for which the “Smooth muscle cell proliferative response to balloon catheter injury” value in data set [1] is on record as “specifically inhibits”. Regarding `OCCN(CCO)c1nc(N2CCCCC2)c2nc(N(CCO)CCO)nc(N3CCCCC3)c2n1` [dipyridamole], in data set [2], the “Smooth muscle proliferative responses” value is given as “prevented”.

For the compound heparin, in data set [3], the “Proliferation of smooth muscle cells” value is “effectively diminished”.
